# Experimental data from patent US20240285717A1, “COMPOSITION FOR PREVENTING OR TREATING MUSCULAR DISEASE CONTAINING PONCIRI FRUCTUS EXTRACT” (KOREA INSTITUTE OF SCIENCE AND TECHNOLOGY, priority 2023, published 2024).
# Tests used:
# C2C12 myotube cells [1] = assay: Cell viability of C2C12 myotube cells with dexamethasone-induced myoatrophy; assay type: cell-based, mouse; conditions: for viability of myotube cells reduced by dexamethasone treatment, by isolated compounds: each compound at 20 uM, FIG. 13
# Method: Cell culture and differentiation of myoblasts: C2C12 mouse (CRL1772; American type cell collection, USA)-derived myoblasts were cultured in Dulbecco's Modified Eagle's Medium (DMEM) medium supplemented with 10 (v/v) % FBS, and after reaching 90% confluence, they were transferred to DMEM medium containing 2 (v/v) % horse serum and cultured for 7 days to differentiate into myotube cells.
# After differentiating C2C12 myoblasts into myotube cells, myoatrophy was induced by treatment with 100 µM of Dexamethasone for 24 hours, and then the myoatrophy-induced myotube cells were treated with Ponciri Fructus extract (PT) at concentrations of 5, 10, and 20 ug/ml, respectively, to determine the effect of alleviating myoatrophy.
# The effect of each fraction (concentrations 5 ug/ml, 10 ug/ml, 20 ug/ml, 40 ug/ml) prepared according to Example 2 on the viability of […] in which myoatrophy was induced by dexamethasone was analyzed. The assay was performed in the same manner as in Example 1.
# The effect of the compounds isolated according to Example 3 (each at a concentration of 20 uM) on the viability of myotube cells in which myoatrophy was induced by dexamethasone was analyzed. The assay was performed in the same manner as in Example 1.
# The assay was performed in the same manner as in Example 1.
# [2] = tested on: mice with dexamethasone-induced sarcopenia; assay: Muscle force in mice with dexamethasone-induced sarcopenia; assay type: in vivo, C57BL/6J mice; conditions: 4 weeks
# Method: (§1) C57BL/6J mice (male, 10 weeks old) were obtained from Doo-yeol Biotech, and after 2 weeks of acclimatization, they were divided into 6 test groups (n=10 per group) according to body weight. The test substance was prepared as a liquid suspension using 0.5% CMC, and the test substance was administered for 4 weeks. To compensate for the placebo effect of 0.5% CMC and the weight loss effect caused by the stress of administration, the vehicle control group was administered 0.5% CMC orally daily. Two weeks after treatment, the experimental group received an intraperitoneal injection of dexamethasone for 2 weeks to induce sarcopenia, while the normal control group received an intraperitoneal injection of saline. All mice were fed the same AIN76 diet (Research Diets) and treated with the test compound for an additional 2 weeks for a total of 4 weeks. The dark:light cycle was maintained at a 12 hr:12 hr interval and water was allowed ad libitum.
# The changes in muscle force in mice were determined by the same method as in Example 3 above.
# [3] = tested on: mice with dexamethasone-induced sarcopenia; assay: Weight by muscle types in mice with dexamethasone-induced sarcopenia; assay type: in vivo, C57BL/6J mice
# Method: as §1
# At the end of a total of 4 weeks of Ponciri Fructus extract administration in Example 3 above, the weight of each type of muscle tissue in all treatment groups was determined.
# After a total of 4 weeks of Auraptene administration, the weight of each type of muscle tissue in all treatment groups was determined in Example 8-5 above.
# C2C12 myotube cells [4] = assay: RT-qPCR of myotube cell differentiation and exercise performance-related gene expression in dexamethasone-treated C2C12 myotube cells; assay type: cell-based, mouse; conditions: auraptene treatment after dexamethasone
# Method: C2C12 mouse-derived […] treated with dexamethasone 10 µM were washed twice with PBS, and total RNA was extracted according to the user-recommended protocol of an RNA extraction kit (GeneAll RNA isolation kit, Seoul, South Korea). cDNA was synthesized from the extracted RNA and subjected to real time-quantitative polymerase chain reaction (RT-qPCR). PCR analysis was performed according to the user-recommended cycling conditions of analyzer (Applied Biosystems 7900 HT thermal cycler, Applied Biosystems), and to determine the expression level of each mRNA, fold change values were calculated relative to the control, using beta-actin as an endogeneous control, and relative expression amounts were compared. The primer sequences are as follows Myf5 forward primer: TCCAGGTATTCCCACCTGCT (sequence 1), Myf5 reverse primer: CACCTGGAGCGGATGAAGAAGAAC (sequence 2); Myf6 forward primer: ACAGATCGTCGGAAAGCAGC (sequence 3), Myf6 reverse primer: CACTCCGCAGAATCTCCACC (sequence 4); Myod forward primer: CATAGACTTGACAGGCCCCG (sequence 5), Myod reverse primer: CGGGTCCAGGTCCTCAAAAA (sequence 6); Myog forward primer: AGCTATCCGGTTCCAAAGCC (sequence 7), Myog reverse primer: GCACAGGAGACCTTGGTCAG (sequence 8); Ppard forward primer: GTATGCGCATGGGACTCACT (sequence 9), Ppard reverse primer: ACTGCCTTTACCGTGGGTTT (SEQ ID NO: 10); Ppargcla forward primer: GTTGCCTGCATGAGTGTGTG (SEQ ID NO: 11), Ppargc1a reverse primer: CACATGTCCCAAGCCATCCA (SEQ ID NO: 12). As a result, the gene expressions of Myf5, Myf6, Myod and Myog, markers of myotube cell differentiation, which were decreased by dexamethasone treatment, were increased by Ponciri Fructus extract treatment, and the gene expressions of Ppard and Pgc1a, markers of motor performance, were increased by Ponciri Fructus extract treatment, as shown in FIGS. 2 and 3.
# The effect of auraptene on promoting myotube cell differentiation and exercise performance-related gene expression in C2C12 myotube cells with dexamethasone-induced myoatrophy was analyzed. The assay was performed using the same method as in Example 2.
# myotube cells = assay: Diameter analysis of myotube cells with dexamethasone-induced myoatrophy; assay type: cell-based, mouse; conditions: auraptene 5, 10, 20 uM; dexamethasone 100 uM; FIG. 15
# Method: The effect of auraptene (5 uM, 10 uM, 20 uM) on the diameter of myotube cells in which myoatrophy was induced by dexamethasone (100 uM) was analyzed. The results confirmed that the diameter of myotube cells decreased by dexamethasone treatment was restored by auraptene treatment (FIG. 15).
# C2C12 myotube cells [5] = assay: Oxidative stress and mitochondrial function in dexamethasone-treated C2C12 myotube cells; assay type: cell-based, mouse; conditions: 10 μM dexamethasone 24 hours, then auraptene; FIG. 18
# Method: C2C12 myoblasts were differentiated into myotube cells as in Example 1, and then treated with 10 μM dexamethasone for 24 hours to induce oxidative stress or mitochondrial dysfunction, and then treated with auraptene to determine its efficacy in improving function.
# [6] = auraptene 10, 50 mg/kg, 4 weeks, vs dexamethasone-treated group, FIG. 20
structure (smiles),measurement,setting,value
"CC(C)C(=O)Cc1c(OCC2OC2(C)C)ccc2ccc(=O)oc12 (stereo not shown) [Compound 9, Isoponcimarin]","viability of myotube cells reduced by dexamethasone treatment, by isolated compounds",C2C12 myotube cells [1],excellently restore
"C[C@]12C/C(=C/O)C(=O)C[C@@H]1CC[C@@H]1[C@@H]2CC[C@@]2(C)[C@H]1CC[C@]2(C)O [Oxymetholone, reference compound]",muscle force compared to the group treated with Dexamethasone alone,"[2]; oral once daily, PT 10, 50, 100 mg/kg, Oxymetholone 50 mg/kg, Dexamethasone 20 mg/kg i.p. 2 weeks, FIGS. 4 and 5",increased
same,weight of quadriceps muscle,"[3]; after 4 weeks, PT 10, 50, 100 mg/kg, Oxymetholone 50 mg/kg, vs Dexamethasone group, FIG. 6",significantly increased
same,weight of gastrocnemius muscle,"[3]; after 4 weeks, PT 10, 50, 100 mg/kg, Oxymetholone 50 mg/kg, vs Dexamethasone group, FIG. 7",significantly increased
same,weight of tibialis muscle,"[3]; after 4 weeks, PT 10, 50, 100 mg/kg, Oxymetholone 50 mg/kg, vs Dexamethasone group, FIG. 8",significantly increased
"C/C(=C\COc1ccc2ccc(=O)oc2c1)C/C=C/C(C)(C)OO [Compound 12, 7-O-(7′-peroxygeranyl)coumarin]","viability of myotube cells reduced by dexamethasone treatment, by isolated compounds",C2C12 myotube cells [1],excellently restore
"CC(C)=CCC/C(C)=C/COc1ccc2ccc(=O)oc2c1 [Compound 2, Auraptene]","viability of myotube cells reduced by dexamethasone treatment, auraptene by concentration","C2C12 myotube cells [1]; 5 uM, 10 uM, 20 uM, all experimental groups, FIG. 14",restore
same,"viability of myotube cells reduced by dexamethasone treatment, by isolated compounds",C2C12 myotube cells [1],excellently restore
same,"viability of myotube cells reduced by dexamethasone treatment, by isolated compounds",C2C12 myotube cells [1]; listed as auraptene,best effect
same,Myf5 gene expression (myotube cell differentiation marker),C2C12 myotube cells [4]; FIG. 16,increased
same,Myod1 gene expression (myotube cell differentiation marker),C2C12 myotube cells [4]; FIG. 16,increased
same,Myog gene expression (myotube cell differentiation marker),C2C12 myotube cells [4]; FIG. 16,increased
same,Nrf1 gene expression (motor performance marker),C2C12 myotube cells [4]; FIG. 17,increased
same,Pparg1a gene expression (motor performance marker),C2C12 myotube cells [4]; FIG. 17,increased
same,Tomm20 gene expression (motor performance marker),C2C12 myotube cells [4]; FIG. 17,increased
same,UCP3 gene expression (motor performance marker),C2C12 myotube cells [4]; FIG. 17,increased
same,diameter of myotube cells decreased by dexamethasone treatment,myotube cells,restored
same,glutathione (GSH) content,C2C12 myotube cells [5],increased
same,mitochondrial dysfunction induced by dexamethasone treatment,C2C12 myotube cells [5],improved
same,muscle force compared to the dexamethasone-treated group,"[2]; auraptene 10, 50 mg/kg oral once daily, Dexamethasone 20 mg/kg 2 weeks, FIG. 19",increased
same,calf muscle weight,[3]; [6],significantly increased
same,longissimus dorsi muscle weight,[3]; [6],significantly increased
same,soleus muscle weight,[3]; [6],significantly increased
same,thigh muscle weight,[3]; [6],significantly increased
"O=c1ccc2ccc(O)cc2o1 [Compound 3, Umbelliferone]","viability of myotube cells reduced by dexamethasone treatment, by isolated compounds",C2C12 myotube cells [1],excellently restore
